Tested on: proteolytic enzymes in combined urine samples of patients (urothelial epithelial neoplasms)
Assay: Effect of protease inhibitors on hydrolysis of ABZ-Leu-Glu-Pro-Val-ANB-NH2 in combined urine samples of patients
Assay type: biochemical, human
Conditions: inhibitor concentrations as in Table 1; fig. 3
Experimental: Proteolytic activity is dependent on the presence of specific compounds called inhibitors (proteolytic enzymes). Their incubation with a given biological material allows us to pre-determine the class of enzymes present in the tested samples. For this purpose, we have added effective inhibitory concentrations of certain classes of proteolytic enzymes to the combined urine samples of the ill persons - patients (urothelial epithelial neoplasms, in particular tumor).

inhibition of hydrolysis of ABZ-Leu-Glu-Pro-Val-ANB-NH2: complete inhibition of hydrolysis
Substance: AHX-VYDnV^P(C4H2Cl)2

— patent EP3431490B1, “CHEMICAL COMPOUNDS FOR USE AS DIAGNOSTIC MARKERS OF INFLAMMATION AND NEOPLAMS, THE METHOD FOR SYNTHESIS OF THE CHEMICAL COMPOUNDS, DIAGNOSTIC KIT FOR USE IN DIAGNOSIS OF INFLAMMATORY PROCESSES AND EPITHELIAL NEOPLASMS AND IN VITRO DIAGNOSTIC METHOD OF INFLAMMATORY PROCESSES AND EPITHELIAL NEOPLASMS” (Uniwersytet Gdanski, priority 2017, dated 2019)
